These results are taken from patent US20250129054A1 (Terran Biosciences Inc., priority 2022, published 2025).

The test system of the data set is rat elevated zero maze model of anxiety. The data set is described as follows: Rat elevated zero maze model of anxiety (% time on open areas, stretched attend postures). It is filed as in vivo, Sprague-Dawley rats. From the text:
The rat zero-maze model is a refined alternative to the plus-maze, the most widely used animal model of anxiety, and consists of an elevated annular platform, divided equally into four quadrants. Two opposite quadrants are enclosed by Perspex walls on both the inner and the outer edges of the platform, while the remaining two opposite quadrants are open being enclosed only by a Perspex “lip”. Animals will show a preference for the closed areas, and avoidance of the open sections is assumed to stem from a rodent's natural aversion to open, exposed spaces. The primary index of anxiety, which reflect changes in open arm preference, is the percentage of time spent on the open areas. A reduction in the amount of activity on the open areas is considered to reflect an increase in anxiety. Other, ethologically-based behaviours are also assessed as indices of anxiety. One of the most important is stretched attend postures (SAP) from closed to open quadrants. […] Shepherd, J K; et al., (1994) Behavioural and pharmacological validation of the elevated “zero-maze” as an animal model of anxiety. Psychopharmacol., 116:56-64.
Male Sprague-Dawley 200-250 g (Envigo UK) rats were used. Animals were group-housed (5 per cage; cage size: 40×40×20 cm) in a temperature-controlled environment (22±2° C.), under a 12 h light-dark cycle (lights on: 08:00 hours) for one week prior to testing. Food and water were freely available. Number of animals per group=5. Animals were moved into the experimental room 16-24 hours before testing.
The elevated 0-maze comprises a black Perspex annular platform (105 cm diameter, 10 cm width) elevated to 65 cm above ground level, divided equally into four quadrants. Two opposite quadrants are enclosed by clear red Perspex walls (27 cm high) on both the inner and outer edges of the platform, while the remaining two opposite quadrants are surrounded only by a Perspex “lip” (1 cm high) which serves as a tactile guide to animals on these open areas.
Subjects were weighed and tail marked before being injected. After a specified pre-treatment time, subjects were placed in a closed quadrant and a 5-min test period were recorded on videotape for subsequent analysis. The maze were cleaned with 5% methanol/water solution and dried thoroughly between test sessions. Behavioural measures comprise percentage time spent on the open areas (% TO) and frequency of stretched attend postures (SAP) from closed to open quadrants. Since the control groups were all treated identically with the same vehicle these were combined to increase power. The Chlordiazepoxide groups were also treated identically with the same dose so these were also combined to increase power. Animals are scored as being in the open area when all four paws were in an open quadrant and in the closed area only when all four paws have passed over the open-closed divide. All testing were carried out between 9.00 and 16.00 hours.
For each study, a 1-way ANOVA was conducted across vehicle, CDP, and drug treatment groups. Each group was compared to the vehicle group and a p-value for treatment determined by Fishers Least Significant Difference (LSD) test. This analysis was performed in GraphPad Prism (Version 9).
Intraperitoneal (IP): Racemic methylone HCl was formulated in Vehicle 1 (Saline) for injection to concentrations of 1, 3 and 6 mg/mL to provide doses of 5, 15 and 30 mg/kg when administered ip in 5 mL/kg dosing volumes.
Intraperitoneal (IP): S-methylone HCl was formulated in Vehicle 1 (Saline) for injection to concentrations of 0.5, 1, 1.5, 3 and 6 mg/mL to provide doses of 2.5, 5, 7.5, 15 and 30 mg/kg when administered ip in 5 mL/kg dosing volumes.
Intraperitoneal (IP): R-methylone HCl was formulated in Vehicle 1 (Saline) for injection to concentrations of 1, 3 and 6 mg/mL to provide doses of 5, 15 and 30 mg/kg when administered ip in 5 mL/kg dosing volumes. […]

Where [1] appears, read: 30 mg/kg ip, 30 min pretreatment, vs vehicle and chlordiazepoxide 6 mg/kg, male SD rats.
[2] abbreviates: specific (sufficient) doses ip, compared with chlordiazepoxide 6 mg/kg.

Regarding `CNC(C)C(=O)c1ccc2c(c1)OCO2` (racemic) [racemic methylone], the “time spent in the open arms” value was “decrease in time spent in the open arms vs placebo” (5 mg/kg ip, 30 min pretreatment, vs vehicle, male SD rats); “no difference from placebo” (15 mg/kg ip, 30 min pretreatment, vs vehicle, male SD rats); “significant decrease in time spent in the open arms” under setting [1]. Besides, the “frequency of SAPs” value by setting is: (15 mg/kg ip, 30 min pretreatment, male SD rats) “dose dependent decrease in SAPs”; under setting [1], “decrease in SAPs”; under setting [2], “decreased the frequency of SAPs as effectively as the benzodiazepine chlordiazepoxide”. Further, the anxiogenic effect entry (across the doses tested, ip, male SD rats) is recorded as “show anxiogenic effects at lower doses”. Under setting [2], the “time in the open arms” value is recorded as “increase time in the open arms”.
